Key:
[1] = tested on: SMN2 minigene mRNA (SMN2-A minigene) in HEK293H cells; experiment: SMN2 minigene mRNA splicing RT-qPCR assay in cultured cells; assay type: cell-based, human; conditions: Homo sapiens, HEK293-H; concentration increasing full length SMN2 mRNA 1.5-fold relative to vehicle-treated cells; HEK293H cells with SMN2-A minigene, 24 hours, 7-point concentration data; read-out: EC1.5x for production of full length SMN2 mRNA
How it was run: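 HEK293H cells stably carrying the SMN2-A minigene were treated for 24 h at 37 °C with a 7-point, 3.16-fold dilution series of compound. Multiplex RT-qPCR measured exon 7-containing minigene FL mRNA against GAPDH, expressed relative to vehicle by modified ΔΔCt; the EC1.5× is the concentration giving a 1.5-fold increase.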

[2] = tested on: Smn protein in SMA patient fibroblast cells (GM03813); experiment: Smn protein assay in cultured cells (SMN HTRF); assay type: cell-based, human; conditions: SMA patient fibroblast cells, 48 hours; for EC1.5x for Smn protein expression: 7-point concentration curve, SMN HTRF, concentration producing 1.5 times Smn protein vs DMSO vehicle control; for maximum fold (Fold) increase of Smn protein: 7-point concentration data, fold relative to vehicle control
How it was run: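 SMA patient fibroblasts (5,000 cells/well, DMEM-10% FBS) were treated for 48 h at 37 °C with a 7-point, 3.16-fold dilution series in triplicate. RIPA lysates were probed by HTRF (anti-SMN d2/kryptate, overnight, room temperature), reading 665/620 nm. EC1.5× is the concentration giving 1.5-fold Smn over DMSO vehicle.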

Compound	EC (1.5-fold increase) [1]	EC1.5x for Smn protein expression [2]	maximum fold (Fold) increase of Smn protein [2]
CN1CCCN(c2ccc3nc(-c4ccc5c(cnn5C)c4)cc(=O)n3c2)CC1 [Compound 492, 7-(4-methyl-1,4-diazepan-1-yl)-2-(1-methyl-1H-indazol-5-yl)-4H-pyrido[1,2-a]pyrimidin-4-one]	0.3 to 1 µM	** (an EC1.5× between >1 μM and ≤3 μM is indicated by two stars (**))	**** (a fold increase between >1.5 and ≤1.65 is indicated by four stars (****))
Cc1cn2nc(-c3cc(=O)n4cc(C5CCNCC5)ncc4n3)cc2c(C)n1 [Compound 502, 2-(4,6-dimethylpyrazolo[1,5-a]pyrazin-2-yl)-7-(piperidin-4-yl)-4H-pyrazino[1,2-a]pyrimidin-4-one]	< 0.1 µM	**** (an EC1.5x≤0.3 μM is indicated by four stars (****))	***** (a fold increase >1.65 is indicated by five stars (*****))
CCN1CCC(c2cn3c(=O)cc(-c4cc5c(C)nc(C)cn5n4)nc3cn2)CC1 [Compound 504, 2-(4,6-dimethylpyrazolo[1,5-a]pyrazin-2-yl)-7-(1-ethylpiperidin-4-yl)-4H-pyrazino[1,2-a]pyrimidin-4-one]	< 0.1 µM	**** (an EC1.5x≤0.3 μM is indicated by four stars (****))	***** (a fold increase >1.65 is indicated by five stars (*****))
CCN1CC=C(c2cn3c(=O)cc(-c4ccc5c(cnn5C)c4)nc3cn2)CC1 [Compound 507, 7-(1-ethyl-1,2,3,6-tetrahydropyridin-4-yl)-2-(1-methyl-1H-indazol-5-yl)-4H-pyrazino[1,2-a]pyrimidin-4-one]	0.1 to 0.3 µM	*** (an EC1.5× between >0.3 μM and ≤1 μM is indicated by three stars (***))	**** (a fold increase between >1.5 and ≤1.65 is indicated by four stars (****))
CCN1CCN(c2cc(C)c3nc(-c4cc5c(C)nc(C)cn5n4)cc(=O)n3c2)CC1 [Compound 508, 2-(4,6-dimethylpyrazolo[1,5-a]pyrazin-2-yl)-7-(4-ethylpiperazin-1-yl)-9-methyl-4H-pyrido[1,2-a]pyrimidin-4-one]	< 0.1 µM	*** (an EC1.5× between >0.3 μM and ≤1 μM is indicated by three stars (***))	**** (a fold increase between >1.5 and ≤1.65 is indicated by four stars (****))
Cc1cn2nc(-c3cc(=O)n4nc(C5CCNCC5)ccc4n3)cc2c(C)n1 [Compound 512, 2-(4,6-dimethylpyrazolo[1,5-a]pyrazin-2-yl)-7-(piperidin-4-yl)-4H-pyrimido[1,2-b]pyridazin-4-one]	< 0.1 µM	**** (an EC1.5x≤0.3 μM is indicated by four stars (****))	***** (a fold increase >1.65 is indicated by five stars (*****))
Cc1cn2nc(-c3cc(=O)n4cc(N5CCCN(C)CC5)cc(C)c4n3)cc2c(C)n1 [Compound 520, 2-(4,6-dimethylpyrazolo[1,5-a]pyrazin-2-yl)-9-methyl-7-(4-methyl-1,4-diazepan-1-yl)-4H-pyrido[1,2-a]pyrimidin-4-one]	0.1 to 0.3 µM	**** (an EC1.5x≤0.3 μM is indicated by four stars (****))	**** (a fold increase between >1.5 and ≤1.65 is indicated by four stars (****))
Cn1cc2cc(-c3cc(=O)n4nc(C5CCNCC5)ccc4n3)ccc2n1 [Compound 521, 2-(2-methyl-2H-indazol-5-yl)-7-(piperidin-4-yl)-4H-pyrimido[1,2-b]pyridazin-4-one]	0.1 to 0.3 µM	**** (an EC1.5x≤0.3 μM is indicated by four stars (****))	***** (a fold increase >1.65 is indicated by five stars (*****))
Cc1cn2nc(-c3cc(=O)n4cc(N5CCNC(C)(C)C5)cc(C)c4n3)cc2c(C)n1 [Compound 544, 7-(3,3-dimethylpiperazin-1-yl)-2-(4,6-dimethylpyrazolo[1,5-a]pyrazin-2-yl)-9-methyl-4H-pyrido[1,2-a]pyrimidin-4-one]	< 0.1 µM	*** (an EC1.5× between >0.3 μM and ≤1 μM is indicated by three stars (***))	**** (a fold increase between >1.5 and ≤1.65 is indicated by four stars (****))
Cc1cn2cc(-c3cc(=O)n4cc(C5CCNCC5)ncc4n3)ccc2n1 [Compound 585, 2-(2-methylimidazo[1,2-a]pyridin-6-yl)-7-(piperidin-4-yl)-4H-pyrazino[1,2-a]pyrimidin-4-one]	< 0.1 µM	**** (an EC1.5x≤0.3 μM is indicated by four stars (****))	***** (a fold increase >1.65 is indicated by five stars (*****))
Cc1cn2cc(-c3cc(=O)n4cc(C5CCNCC5)ncc4n3)cc(Cl)c2n1 [Compound 587, 2-(8-chloro-2-methylimidazo[1,2-a]pyridin-6-yl)-7-(piperidin-4-yl)-4H-pyrazino[1,2-a]pyrimidin-4-one]	< 0.1 µM	**** (an EC1.5x≤0.3 μM is indicated by four stars (****))	**** (a fold increase between >1.5 and ≤1.65 is indicated by four stars (****))
Cc1cn2cc(-c3cc(=O)n4cc(C5CCNCC5)ncc4n3)cc(C)c2n1 [Compound 588, 2-(2,8-dimethylimidazo[1,2-a]pyridin-6-yl)-7-(piperidin-4-yl)-4H-pyrazino[1,2-a]pyrimidin-4-one]	< 0.1 µM	**** (an EC1.5x≤0.3 μM is indicated by four stars (****))	***** (a fold increase >1.65 is indicated by five stars (*****))
CN1CCN(c2cn3c(=O)cc(-c4ccc5nn(C)cc5c4)nc3cn2)CC1 [Compound 589, 2-(2-methyl-2H-indazol-5-yl)-7-(4-methylpiperazin-1-yl)-4H-pyrazino[1,2-a]pyrimidin-4-one]	0.1 to 0.3 µM	*** (an EC1.5× between >0.3 μM and ≤1 μM is indicated by three stars (***))	**** (a fold increase between >1.5 and ≤1.65 is indicated by four stars (****))
CC(C)N1CCC(c2ccc3nc(-c4ccc5nn(C)cc5c4)cc(=O)n3c2)CC1 [Compound 608, 2-(2-methyl-2H-indazol-5-yl)-7-[1-(propan-2-yl)piperidin-4-yl]-4H-pyrido[1,2-a]pyrimidin-4-one]	0.1 to 0.3 µM	** (an EC1.5× between >1 μM and ≤3 μM is indicated by two stars (**))	**** (a fold increase between >1.5 and ≤1.65 is indicated by four stars (****))
Cc1cn2cc(-c3cc(=O)n4cc(C5CCN(CCO)CC5)ccc4n3)cc(C)c2n1 [Compound 617, 2-(2,8-dimethylimidazo[1,2-a]pyridin-6-yl)-7-[1-(2-hydroxyethyl)piperidin-4-yl]-4H-pyrido[1,2-a]pyrimidin-4-one]	< 0.1 µM	**** (an EC1.5x≤0.3 μM is indicated by four stars (****))	***** (a fold increase >1.65 is indicated by five stars (*****))
